According to patent US7074801B1, “Nitrogen-containing condensed cyclic compound having a pyrazolyl group as a substituent group and pharmaceutical composition thereof” (Eisai Co., Ltd., priority 2001, dated 2006):
Counter-ions that a name gives are not always drawn. Like-named read-outs stand apart in the source and are kept apart here.

Test system: STAT6
Experiment: Inhibitory test on STAT6 activation: IL-4-induced alkali phosphatase STAT6 reporter in 293 cells stably expressing the STAT6 gene and STAT6 reporter gene
Assay type: cell-based
Conditions: HEK293, 1 ng/ml human recombinant IL-4, 16 hours, 293 cells with STAT6 reporter, read-out: Inhibitory activity IC50 (concentration at which the alkali phosphatase activity induced by IL-4 was inhibited by 50%)
Outline: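 HEK293 clone stably carrying STAT6 and a STAT6-element-driven alkaline phosphatase reporter, 5000 cells/well. Compound (DMSO ≤0.1%) plus 1 ng/ml human IL-4 for 16 hours. Supernatant heat-treated 65° C. 10 minutes, then alkaline phosphatase measured fluorometrically in carbonate buffer.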

IC50 (Table 2) [nM] | IC50 (Table 1) [nM] | Structure (SMILES)
< 10 |  | CN(C)CCN(C)S(=O)(=O)c1ccc(-c2ncnc3ccc(-c4c[nH]nc4-c4ccc(F)cc4)cc23)s1 [Example 855, 5-{6-[3-(4-Fluorophenyl)-1H-pyrazol-4-yl]quinazolin-4-yl}-thiophen-2-sulfonic acid (2-dimethylaminoethyl)methylamide trihydrochloride]
10 to 100 |  | O=S(=O)(CCO)c1cccc(N2CCN(c3ncnc4ccc(-c5cn[nH]c5)cc34)CC2)c1 [Example 951, 2-(3-{4-[6-(1H-Pyrazol-4-yl)quinazolin-4-yl]piperazin-1-yl}benzenesulfonyl)ethanol tri-trifluoroacetate]
10 to 100 |  | O=C(Nc1nccs1)c1ccc(-c2ncnc3ccc(-c4cn[nH]c4)cc23)cc1F [Example 872, 2-Fluoro-N-thiazol-2-yl-4-[6-(1H-pyrazol-4-yl)quinazolin-4-yl]benzamide trihydrochloride]
< 10 |  | Cc1ccnc(NC(=O)c2ccc(-n3cnc4ccc(-c5cn[nH]c5)cc43)cc2F)c1 [Example 728, N1-(4-Methyl-2-pyridyl)-2-fluoro-4-[6-(1H-4-pyrazolyl)-1H-benzo[d]imidazol-1-yl]benzamide trihydrochloride]
< 10 |  | O=S(=O)(c1ccc(-c2ncnc3ccc(-c4c[nH]nc4-c4ccc(F)cc4F)cc23)s1)C1CC1 [Example 903, 4-(5-Cyclopropanesulfonylthiophen-2-yl)-6-[3-(2,4-difluorophenyl)-1H-pyrazol-4-yl] quinazoline]
 | 100 to 1000 | COc1ccc(-c2n[nH]cc2-c2ccc3ncnc(-c4ccc(S(C)(=O)=O)s4)c3c2)cc1OC [Example 261, 6-[3-(3,4-Dimethoxyphenyl)-1H-4-pyrazolyl]-4-[5-(methylsulfonyl)-2-thienyl]quinazoline dihydrochloride]
 | < 10 | Cc1csc(NC(=O)c2ccc(-c3cnc4ccc(-c5cn[nH]c5)cn34)cc2)n1 [Example 629, N1-(4-Methyl-1,3-thiazol-2-yl)-4-[6-(1H-4-pyrazolyl)-imidazo[1,2-a]pyridin-3-yl]benzamide dihydrochloride]
100 to 1000 |  | CN(c1ccccc1)S(=O)(=O)c1ccc(-c2ncnc3ccc(-c4c[nH]nc4-c4ccc(F)cc4)cc23)s1 [Example 856, 5-{6-[3-(4-Fluorophenyl)-1H-pyrazol-4-yl]quinazolin-4-yl}-thiophen-2-sulfonic acid methylphenylamide dihydrochloride]
< 10 |  | Cc1cn(-c2ncnc3ccc(-c4c[nH]nc4-c4c(F)cccc4F)cc23)cn1 [Example 914, 6-[3-(2,6-Difluorophenyl)-1H-pyrazol-4-yl]-4-(4-methylimidazol-1-yl) quinazoline]
< 10 |  | O=C(Nc1cccc(N2CCN(c3ncnc4ccc(-c5cn[nH]c5)cc34)CC2)c1)C1(c2ccccc2)CC1 [Example 978, 1-Phenylcyclopropanecarboxylic acid (3-{4-[6-(1H-pyrazol-4-yl)quinazolin-4-yl]piperazin-1-yl}phenyl)amide tri-trifluoroacetate]
 | 10 to 100 | Fc1ccc(-c2n[nH]cc2-c2ccc3ncc(-c4ccc(Cl)s4)n3c2)cc1 [Example 70, 3-(5-Chloro-2-thienyl)-6-[3-(4-fluorophenyl)-1H-4-pyrazolyl]imidazo[1,2-a]pyridine dihydrochloride]
 | 10 to 100 | O=C(Nc1ccc(-c2cnc3ccc(-c4cn[nH]c4)cn23)cc1F)NC1CCCCC1 [Example 698, N-Cyclohexyl-N′-(2-fluoro-4-[6-(1H-4-pyrazolyl)imidazo[1,2-a]pyridin-3-yl]phenyl}urea hydrochloride]
 | 10 to 100 | Cc1n[nH]cc1-c1ccc2ncc(-c3ccc(S(=O)(=O)N(C)c4ccc(Cl)cc4)cc3)n2c1 [Example 632, N1-(4-Chlorophenyl)-N1-methyl-4-[6-(3-methyl-1H-4-pyrazolyl)imidazo[1,2-a]pyridin-3-yl]-1-benzene sulfonamide]
10 to 100 |  | CS(=O)(=O)c1ccc(-c2ncnc3ccc(-c4c[nH]nc4-c4ccc(OC(F)(F)F)cc4)cc23)s1 [Example 892, 4-(5-Methylsulfonylthiophen-2-yl)-6-[3-(4-trifluoromethoxyphenyl)-1H-pyrazol-4-yl] quinazoline]
